Reference: ChEMBL document CHEMBL2074415, “Expression and characterization of a functional rat liver Na+ bile acid cotransport system in COS-7 cells” (Am J Physiol, 1994)

Assays:
Assay type in all cases: functional, cell-based
Conditions in all cases: monkey, cos-7, 100 µM
[1] = target: T1, Hepatic sodium/bile acid cotransporter (Rattus norvegicus, UniProt P26435); assay: TP_TRANSPORTER: inhibition of Taurocholate uptake (Taurocholate: 5 uM, CDCA: 100 uM) in Ntcp-expressing COS-7 cells
T1 sequence (P26435 whole entry): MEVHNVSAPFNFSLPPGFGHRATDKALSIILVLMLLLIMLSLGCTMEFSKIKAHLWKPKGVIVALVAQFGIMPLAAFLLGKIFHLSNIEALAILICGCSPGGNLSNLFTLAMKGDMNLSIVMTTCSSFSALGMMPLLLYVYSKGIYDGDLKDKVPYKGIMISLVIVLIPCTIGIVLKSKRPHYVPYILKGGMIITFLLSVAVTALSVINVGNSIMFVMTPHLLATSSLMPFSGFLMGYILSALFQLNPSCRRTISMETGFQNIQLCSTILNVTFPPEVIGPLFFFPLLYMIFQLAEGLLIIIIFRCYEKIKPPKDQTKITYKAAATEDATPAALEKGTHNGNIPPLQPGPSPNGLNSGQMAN

[2] = target: T1, Hepatic sodium/bile acid cotransporter; assay: TP_TRANSPORTER: inhibition of Taurocholate uptake (Taurocholate: 5 uM, TUDC: 100 uM) in Ntcp-expressing COS-7 cells
[3] = target: T1, Hepatic sodium/bile acid cotransporter; assay: TP_TRANSPORTER: inhibition of Taurocholate uptake (Taurocholate: 5 uM, UDCA: 100 uM) in Ntcp-expressing COS-7 cells

For `C[C@H](CCC(=O)O)[C@H]1CC[C@H]2[C@@H]3[C@H](O)C[C@@H]4C[C@H](O)CC[C@]4(C)[C@H]3CC[C@]12C` [CHENODIOL], the Activity [1] was “inhibitor [(at a rough estimate) 25 % of control]”.
With `C[C@H](CCC(=O)NCCS(=O)(=O)O)[C@H]1CC[C@H]2[C@@H]3[C@@H](O)C[C@@H]4C[C@H](O)CC[C@]4(C)[C@H]3CC[C@]12C` [TAURURSODIOL] the Activity [2] was “inhibitor [(at a rough estimate) 25 % of control]”.
In the case of `C[C@H](CCC(=O)O)[C@H]1CC[C@H]2[C@@H]3[C@@H](O)C[C@@H]4C[C@H](O)CC[C@]4(C)[C@H]3CC[C@]12C` [URSODIOL], the Activity [3] is reported as “inhibitor [(at a rough estimate) 45 % of control]”.
